Here are results for 33 compounds from ChEMBL document CHEMBL1137971, “Potent small molecule CCR1 antagonists” (Bioorg Med Chem Lett, 2004).

A value given as a limit tells only on which side of the number the result lay.

For experiment [1], the target named is T1, C-C chemokine receptor type 1 (Homo sapiens, UniProt P32246).
T1 sequence (P32246 whole entry): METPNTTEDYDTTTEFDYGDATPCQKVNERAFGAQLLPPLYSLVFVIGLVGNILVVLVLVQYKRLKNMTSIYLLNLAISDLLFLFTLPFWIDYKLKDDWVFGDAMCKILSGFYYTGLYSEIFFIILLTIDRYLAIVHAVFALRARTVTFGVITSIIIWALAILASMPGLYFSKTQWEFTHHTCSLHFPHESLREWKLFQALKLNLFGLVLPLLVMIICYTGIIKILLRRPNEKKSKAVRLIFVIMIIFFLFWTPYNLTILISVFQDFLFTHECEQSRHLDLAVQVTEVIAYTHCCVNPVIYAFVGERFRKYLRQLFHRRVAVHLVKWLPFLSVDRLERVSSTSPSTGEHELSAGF
Briefly: Inhibition of CCL3 binding to C-C chemokine receptor type 1.

The test system of experiment [2] is THP-1. Briefly: Inhibition of CCL3 induced chemotaxis in THP-1 cells. In kind it is functional, cell-based. To be noted: Homo sapiens.
Experiment [3] has as its system THP-1. Briefly: Inhibition of CCL3 induced chemotaxis in THP-1 cells; Not active. Type of experiment: functional, cell-based, Homo sapiens.
The next experiment is filed under the species Homo sapiens. Briefly: Compound inhibits CCL3 induced CD11b up-regulation on monocytes in human whole blood. In kind it is functional, organism-based.

In general, IC50 refers to the concentration at which inhibition is half-maximal. Low readings indicate greater potency, high ones weaker potency. Regarding `CNC(=O)[C@H](CC(C)C)C[C@H](O)[C@H](Cc1ccccc1)NC(=O)c1cnccn1`, the IC50 in experiment [1] is greater than 32000 nM; with THP-1 [2], greater than 25000 nM.
In the same order, the values of `CC1(C)CC([C@H](C[C@H](O)[C@H](Cc2ccccc2)NC(=O)c2cnc3ccccc3n2)C(N)=O)CC(C)(C)C1` are 44800 nM and 4600 nM.
As to `CNC(=O)[C@H](CC(C)C)C[C@H](O)[C@H](Cc1ccccc1)NC(=O)c1nccc2ccccc12`, the IC50 in experiment [1] came out at 580 nM; with THP-1 [2], 2400 nM.
`CNC(=O)[C@H](CC(C)C)C[C@H](O)[C@H](Cc1ccccc1)NC(=O)c1ccnc2ccccc12`: the IC50 in experiment [1] was found to be 18500 nM; in the experiment on THP-1 [2] it was 4300 nM.
As to `CC(C)CC[C@H](C[C@H](O)[C@H](Cc1ccccc1)NC(=O)c1cnc2ccccc2n1)C(N)=O`, the IC50 in experiment [1] was determined as 28 nM; with THP-1 [2], 2 nM.
Regarding `CNC(=O)[C@H](CCC(C)C)C[C@H](O)[C@H](Cc1ccccc1)NC(=O)c1cnc2ccccc2n1`, the 50% inhibitory concentration (IC50) stood at 22 nM in experiment [1] and 8 nM with THP-1 [2].
For `CNC(=O)[C@H](CC(C)C)C[C@H](O)[C@H](Cc1ccccc1)NC(=O)c1cc2ccccc2nc1O`, in that order: 16700 nM and greater than 25000 nM.
In the same order, the values of `CNC(=O)[C@H](CC(C)C)C[C@H](O)[C@H](Cc1ccccc1)NC(=O)c1ccc2ccccc2c1` are 10300 nM and greater than 25000 nM.
Take `NC(=O)[C@H](CC1CCCC1)C[C@H](O)[C@H](Cc1ccccc1)NC(=O)c1cnc2ccccc2n1`: the half-inhibitory concentration (IC50) in experiment [1] is 48 nM; in the experiment with THP-1 [2], 12 nM.
As for `CNC(=O)[C@H](CC(C)C)C[C@H](O)[C@H](Cc1ccc(F)cc1)NC(=O)c1cnc2ccccc2n1`, the IC50 in experiment [1] came out at 2600 nM; in the experiment with THP-1 [2] it was 3000 nM.
For `CNC(=O)[C@H](CC(C)C)C[C@H](O)[C@H](Cc1ccc(O)cc1)NC(=O)c1cnc2ccccc2n1`, in that order: 610 nM and 1300 nM.
For the compound `CNC(=O)[C@H](CC(C)C)C[C@H](O)[C@H](Cc1ccccc1)NC(=O)c1cnnc2ccccc12`, the IC50 in experiment [1] was 2570 nM; in the experiment with THP-1 [2], 1100 nM.
For `CN(C)CC[C@H](C[C@H](O)[C@H](Cc1ccccc1)NC(=O)c1cnc2ccccc2n1)C(N)=O`, the results for the IC50 (in experiment [1]; in the experiment with THP-1 [2]) were 55100 nM and greater than 25000 nM, respectively.
Regarding `CC[C@H](C)[C@H](NC(=O)c1cnc2ccccc2n1)[C@@H](O)C[C@@H](CC(C)C)C(=O)NC`, the IC50 is 4200 nM in experiment [1] and “Not Active” in the experiment on THP-1 [3].
On to `CNC(=O)[C@H](CC(C)C)C[C@H](O)[C@H](Cc1ccccc1)NC(=O)c1cncc(Br)c1`, for which the results for the IC50 (in experiment [1]; in the experiment with THP-1 [3]) were 510 nM and “Not Active”, respectively.
Turning to `CNC(=O)[C@H](CC(C)C)C[C@H](O)[C@H](Cc1ccc(OC)cc1)NC(=O)c1cnc2ccccc2n1`, the figures for the half-inhibitory concentration (IC50) (in experiment [1]; in the experiment on THP-1 [2]) were 2900 nM and 2000 nM, respectively.
For `CNC(=O)[C@H](CC(C)C)C[C@H](O)[C@H](Cc1ccccc1)NC(=O)c1ccc2ncccc2c1`, in that order: 2490 nM and 3300 nM.
Take `NC(=O)[C@@H](C[C@H](O)[C@H](Cc1ccccc1)NC(=O)c1cnc2ccccc2n1)C1CCOCC1`: the IC50 in experiment [1] is 3500 nM; in the experiment on THP-1 [2], 12500 nM.
For the compound `NC(=O)[C@H](Cc1ccccc1)C[C@H](O)[C@H](Cc1ccccc1)NC(=O)c1cnc2ccccc2n1`, the concentration for half-maximal inhibition (IC50) was 280 nM in experiment [1] and 120 nM in the experiment on THP-1 [2].
Regarding `CNC(=O)[C@H](CC(C)C)C[C@H](O)[C@H](Cc1ccccc1)NC(=O)c1cnc2ccccc2n1`, the half-inhibitory concentration (IC50) (in experiment [1]; in the experiment on THP-1 [2]) was 64 nM each time.
As for `CNC(=O)[C@H](CC(C)C)C[C@H](O)[C@H](CC1CCCCC1)NC(=O)c1cnc2ccccc2c1`, the IC50 in the experiment listed under Homo sapiens was roughly 5000 nM; with THP-1 [2] it was 840 nM.
Take `CNC(=O)[C@H](CC(C)C)C[C@H](O)[C@H](Cc1ccccc1)NC(=O)c1cccc2cccnc12`: the concentration for half-maximal inhibition (IC50) in experiment [1] was greater than 32000 nM; with THP-1 [2], greater than 25000 nM.
For `NC(=O)[C@@H](C[C@H](O)[C@H](Cc1ccccc1)NC(=O)c1cnc2ccccc2n1)C1CCCC1`, in that order: 26 nM and 28 nM.
In the same order, the values of `CNC(=O)[C@H](CC(C)C)C[C@H](O)[C@H](Cc1ccccc1)NC(=O)c1cncc2ccccc12` are 5150 nM and 6600 nM.
As for `NC(=O)[C@@H](C[C@H](O)[C@H](Cc1ccccc1)NC(=O)c1cnc2ccccc2n1)C1CCCCC1`, the values for the IC50 (in experiment [1]; in the experiment with THP-1 [2]) were 8 nM and 5 nM, respectively.
As to `CNC(=O)[C@H](CC(C)C)C[C@H](O)[C@H](Cc1ccccc1)NC(=O)c1cnc2ccccc2c1`, half-maximal inhibition in the experiment on THP-1 [2] (IC50) was put at 460 nM.
Turning to `CNC(=O)[C@H](CC(C)C)C[C@H](O)[C@H](Cc1ccccc1)NC(=O)c1cccnc1`, the half-maximal inhibitory concentration (IC50) in experiment [1] is greater than 32000 nM; in the experiment with THP-1 [2] it was greater than 25000 nM.
Regarding `CC1CC([C@H](C[C@H](O)[C@H](Cc2ccccc2)NC(=O)c2cnc3ccccc3n2)C(N)=O)CC(C)O1` (stereo not given in full), the IC50 in experiment [1] is 15 nM; in the experiment on THP-1 [2], 5 nM.
`NC(=O)[C@H](CCO)C[C@H](O)[C@H](Cc1ccccc1)NC(=O)c1cnc2ccccc2n1`: the half-maximal inhibitory concentration (IC50) was 4600 nM in experiment [1] and greater than 25000 nM with THP-1 [2].
Turning to `CC(C)CCC[C@H](C[C@H](O)[C@H](Cc1ccccc1)NC(=O)c1cnc2ccccc2n1)C(N)=O`, the concentration for half-maximal inhibition (IC50) in experiment [1] came to 420 nM; with THP-1 [2], 69 nM.
In the same order, the values of `CNC(=O)[C@H](CC(C)C)C[C@H](O)[C@H](Cc1ccccc1)NC(=O)c1ccc2ccccc2n1` are 130 nM and 890 nM.
With `CNC(=O)[C@H](CC(C)C)C[C@H](O)[C@H](Cc1ccc(Cl)c(Cl)c1)NC(=O)c1cnc2ccccc2n1`, the figures for the IC50 (in experiment [1]; in the experiment on THP-1 [2]) were 160 nM and 150 nM, respectively.
Take `CNC(=O)[C@H](CC(C)C)C[C@H](O)[C@H](CC1CCCCC1)NC(=O)c1cnc2ccccc2n1`: the IC50 turned out to be 670 nM in experiment [1] and 560 nM in the experiment on THP-1 [2].
